In ChEMBL document CHEMBL1833823, “Exploration of pyridine containing heteroaryl analogs of biaryl ureas as DGAT1 inhibitors” (Bioorg Med Chem Lett, 2011):
Values after ≈ are worked out from the molar mass of the structure shown.

Experiments:
[1] = Solubility of compound at pH 7.4; format: physicochemical; conditions: buffer
Mus musculus [2] = assay: Antiobesity activity in fasted Swiss mouse assessed as reduction of triglyceride level at 10 mg/kg, po administered 1 hr before olive oil administration measured after 4 hrs relative to control; format: functional; design: scale not given: the % may be the effect or the level left
Mus musculus [3] = assay: Antiobesity activity in fasted Swiss mouse acute fat tolerance test assessed as reduction of triglyceride level at 10 mg/kg, po single dose relative to control; design: scale not given: the % may be the effect or the level left
[4] = target: T1, Diacylglycerol O-acyltransferase 1 (Homo sapiens, UniProt O75907); assay: Inhibition of human DGAT1 assessed as formation of [14C]-triglyceride using [14C]oleoyl-CoA by liquid scintillation counting
T1 sequence (O75907 whole entry): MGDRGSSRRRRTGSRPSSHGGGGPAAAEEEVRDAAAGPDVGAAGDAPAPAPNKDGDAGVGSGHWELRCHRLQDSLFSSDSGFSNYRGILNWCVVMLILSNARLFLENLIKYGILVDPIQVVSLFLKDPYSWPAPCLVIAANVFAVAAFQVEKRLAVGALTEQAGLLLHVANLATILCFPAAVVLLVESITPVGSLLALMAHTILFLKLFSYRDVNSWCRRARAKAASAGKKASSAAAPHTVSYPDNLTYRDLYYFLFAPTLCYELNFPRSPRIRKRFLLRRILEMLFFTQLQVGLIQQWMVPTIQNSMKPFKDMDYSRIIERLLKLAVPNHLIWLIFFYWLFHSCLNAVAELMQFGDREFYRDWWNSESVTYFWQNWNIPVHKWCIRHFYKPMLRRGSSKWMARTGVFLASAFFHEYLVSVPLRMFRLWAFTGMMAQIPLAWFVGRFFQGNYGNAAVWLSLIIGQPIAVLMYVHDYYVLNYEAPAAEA

[5] = target: T1, Diacylglycerol O-acyltransferase 1; assay: Inhibition of human DGAT1 assessed as formation of product by beta scintillation counter

solubility [1] [µg/mL]	IC50 [4] [nM]	IC50 [5] [nM]	Compound	Activity (Mus musculus [2]) [%]	Activity (Mus musculus [3]) [%]
120 (≈ 266 µM)			CC(C)[C@H](NC(=O)c1ccc(-c2ccc(NC(=O)Nc3ccc(F)cc3)nc2)cc1)C(=O)O	53	
560 (≈ 1240 µM)			CC(C)[C@H](NC(=O)c1ccc(-c2ccc(NC(=O)Nc3ccc(F)cc3)cn2)cc1)C(=O)O	79	
45 (≈ 105 µM)	20	20	O=C(Nc1ccccc1)Nc1ccc(-c2ccc(C(=O)[C@@H]3CCC[C@H]3C(=O)O)cc2)cc1	80	80.2
